This is an account of results in publication PMC5218480 (PLoS ONE, 2017).

In this experiment the test system is MV-4-11 cells. The experiment in a line: Gene expression microarray analysis (Affymetrix PrimeView) and GSEA. Particulars: MV-4-11 cells, 48 hours. Also on record: RFU PODN (11730768_x_at) / Fold change /veh PODN (11730768_x_at) / RFU LINC00158 (11744669_a_at) / Fold change /veh LINC00158 (11744669_a_at) / RFU DUSP10 (11751237_a_at) / Fold change /veh DUSP10 (11751237_a_at) / RFU ID3 (11757404_x_at) / Fold change /veh ID3 (11757404_x_at) / RFU PLEKHG5 (11737974_s_at) / Fold change /veh PLEKHG5 (11737974_s_at) / RFU LRRC4B (11730491_at) / Fold change /veh LRRC4B (11730491_at) / RFU GIMAP4 (11747438_a_at) / Fold change /veh GIMAP4 (11747438_a_at) / RFU KRT8 (11758183_x_at) / Fold change /veh KRT8 (11758183_x_at) / RFU CNN1 (11734310_a_at) / Fold change /veh CNN1 (11734310_a_at) / RFU VPS37D (11726825_at) / Fold change /veh VPS37D (11726825_at) / RFU C10orf10 (11716522_x_at) / Fold change /veh C10orf10 (11716522_x_at) / RFU KIR2DL2 /// KIR2DL4 /// KIR2DL5A /// KIR2DL5B /// KIR2DS1 /// KIR2DS2 /// KIR2DS3 /// KIR2DS4 /// KIR3DL3 /// KIR3DL3 /// KIR3DS1 (11738374_at) / Fold change /veh KIR2DL2 /// KIR2DL4 /// KIR2DL5A /// KIR2DL5B /// KIR2DS1 /// KIR2DS2 /// KIR2DS3 /// KIR2DS4 /// KIR3DL3 /// KIR3DL3 /// KIR3DS1 (11738374_at) / RFU C1QL1 (11718748_at) / Fold change /veh C1QL1 (11718748_at) / RFU TMPRSS4 (11747572_a_at) / Fold change /veh TMPRSS4 (11747572_a_at) / RFU HAMP (11756126_x_at) / Fold change /veh HAMP (11756126_x_at) / RFU RNFT2 (11725882_a_at) / Fold change /veh RNFT2 (11725882_a_at) / RFU NR4A2 (11747474_a_at) / Fold change /veh NR4A2 (11747474_a_at) / RFU ABCC12 (11746883_a_at) / Fold change /veh ABCC12 (11746883_a_at) / RFU TMEM136 (11760407_x_at) / Fold change /veh TMEM136 (11760407_x_at) / RFU CLDN22 /// WWC2 (11732394_at) / Fold change /veh CLDN22 /// WWC2 (11732394_at) / RFU HLA-DPB1 (11760878_x_at) / Fold change /veh HLA-DPB1 (11760878_x_at) / RFU SPINT1 (11716480_a_at) / Fold change /veh SPINT1 (11716480_a_at) / RFU GAP43 (11754022_s_at) / Fold change /veh GAP43 (11754022_s_at) / RFU A4GNT (11735810_at) / Fold change /veh A4GNT (11735810_at) / RFU PRB3 (11715151_x_at) / Fold change /veh PRB3 (11715151_x_at) / RFU TUBB4B (11761932_at) / Fold change /veh TUBB4B (11761932_at) / RFU CAPN14 (11732068_a_at) / Fold change /veh CAPN14 (11732068_a_at) / RFU TMCC2 (11721928_a_at) / Fold change /veh TMCC2 (11721928_a_at) / RFU IRGQ (11745062_a_at) / Fold change /veh IRGQ (11745062_a_at) / RFU FAM174B (11720279_a_at) / Fold change /veh FAM174B (11720279_a_at) / RFU TMPRSS4 (11748680_a_at) / Fold change /veh TMPRSS4 (11748680_a_at) / RFU FAM212B (11763350_a_at) / Fold change /veh FAM212B (11763350_a_at) / RFU PLEKHG5 (11743358_a_at) / Fold change /veh PLEKHG5 (11743358_a_at) / RFU ZSCAN30 (11745921_a_at) / Fold change /veh ZSCAN30 (11745921_a_at) / RFU CMKLR1 (11741424_a_at) / Fold change /veh CMKLR1 (11741424_a_at) / RFU LOC101060620 /// MAPK8IP1 (11723275_at) / Fold change /veh LOC101060620 /// MAPK8IP1 (11723275_at) / RFU SPTSSB (11747773_x_at) / Fold change /veh SPTSSB (11747773_x_at) / RFU PRSS12 (11739890_at) / Fold change /veh PRSS12 (11739890_at) / RFU BIN1 (11741810_x_at) / Fold change /veh BIN1 (11741810_x_at) / RFU WNT11 (11732464_a_at) / Fold change /veh WNT11 (11732464_a_at) / RFU C10orf10 (11716521_a_at) / Fold change /veh C10orf10 (11716521_a_at) / RFU C5orf56 (11738089_at) / Fold change /veh C5orf56 (11738089_at) / RFU CYB561 (11721691_x_at) / Fold change /veh CYB561 (11721691_x_at) / RFU ANKRD19P (11752326_a_at) / Fold change /veh ANKRD19P (11752326_a_at) / RFU OR2T12 /// OR2T33 /// OR2T8 (11738714_s_at) / Fold change /veh OR2T12 /// OR2T33 /// OR2T8 (11738714_s_at) / RFU VCAN (11748164_a_at) / Fold change /veh VCAN (11748164_a_at) / RFU JSRP1 (11732532_at) / Fold change /veh JSRP1 (11732532_at) / RFU KRTAP10-11 (11738290_x_at) / Fold change /veh KRTAP10-11 (11738290_x_at) / RFU MYO3A (11730013_a_at) / Fold change /veh MYO3A (11730013_a_at) / RFU EBF3 (11725865_a_at) / Fold change /veh EBF3 (11725865_a_at) / RFU CAMK2N1 (11719241_x_at) / Fold change /veh CAMK2N1 (11719241_x_at) / RFU C5orf56 (11738088_a_at) / Fold change /veh C5orf56 (11738088_a_at) / RFU OLFML3 (11715873_a_at) / Fold change /veh OLFML3 (11715873_a_at) / RFU LOC100653217 /// NTM (11731650_a_at) / Fold change /veh LOC100653217 /// NTM (11731650_a_at) / RFU MAPK11 (11762145_a_at) / Fold change /veh MAPK11 (11762145_a_at) / RFU FIZ1 (11724087_x_at) / Fold change /veh FIZ1 (11724087_x_at) / RFU OASL (11726364_x_at) / Fold change /veh OASL (11726364_x_at) / RFU SOX15 (11748057_x_at) / Fold change /veh SOX15 (11748057_x_at) / RFU CD79A (11719716_a_at) / Fold change /veh CD79A (11719716_a_at) / RFU HIST1H1D (11736915_at) / Fold change /veh HIST1H1D (11736915_at) / RFU CASKIN2 (11723855_a_at) / Fold change /veh CASKIN2 (11723855_a_at) / RFU LOC730098 (11760151_x_at) / Fold change /veh LOC730098 (11760151_x_at) / RFU OR4N2 (11742367_at) / Fold change /veh OR4N2 (11742367_at) / RFU PRRT2 (11749266_a_at) / Fold change /veh PRRT2 (11749266_a_at) / RFU SNX32 (11753110_a_at) / Fold change /veh SNX32 (11753110_a_at) / RFU CDHR5 (11726645_a_at) / Fold change /veh CDHR5 (11726645_a_at) / RFU RCAN1 (11760418_a_at) / Fold change /veh RCAN1 (11760418_a_at) / RFU FAM167A (11723789_a_at) / Fold change /veh FAM167A (11723789_a_at) / RFU FAM26E (11764081_at) / Fold change /veh FAM26E (11764081_at) / RFU ISYNA1 (11749810_s_at) / Fold change /veh ISYNA1 (11749810_s_at) / RFU ACY1 (11761880_at) / Fold change /veh ACY1 (11761880_at) / RFU 11764098_at / Fold change /veh 11764098_at / RFU SAMD14 (11745864_x_at) / Fold change /veh SAMD14 (11745864_x_at) / RFU NPB (11741838_a_at) / Fold change /veh NPB (11741838_a_at) / RFU TMPRSS6 (11731388_a_at) / Fold change /veh TMPRSS6 (11731388_a_at) / RFU KRTAP10-2 (11738614_at) / Fold change /veh KRTAP10-2 (11738614_at) / RFU ARHGAP8 /// PRR5-ARHGAP8 (11727945_x_at) / Fold change /veh ARHGAP8 /// PRR5-ARHGAP8 (11727945_x_at) / RFU KRTAP5-7 /// NADSYN1 (11734609_at) / Fold change /veh KRTAP5-7 /// NADSYN1 (11734609_at) / RFU RASL12 (11751679_a_at) / Fold change /veh RASL12 (11751679_a_at) / RFU CDKN2B (11736163_a_at) / Fold change /veh CDKN2B (11736163_a_at) / RFU PRF1 (11729649_at) / Fold change /veh PRF1 (11729649_at) / RFU, ZNF638 /// ZNF638-IT1 / Fold change vs veh, ZNF638 /// ZNF638-IT1 / RFU, PANK3 / Fold change vs veh, PANK3 / RFU, SH3YL1 / Fold change vs veh, SH3YL1 / RFU, ZEB2 / Fold change vs veh, ZEB2 / RFU, NRIP1 / Fold change vs veh, NRIP1 / RFU, PTTG1IP / Fold change vs veh, PTTG1IP / RFU, CAPN2 / Fold change vs veh, CAPN2 / RFU, MED14 / Fold change vs veh, MED14 / RFU, SNORA58 / Fold change vs veh, SNORA58 / RFU, C1orf63 / Fold change vs veh, C1orf63 / RFU, LRRFIP1 / Fold change vs veh, LRRFIP1 / RFU, NDUFAF7 / Fold change vs veh, NDUFAF7 / RFU, SLC12A2 / Fold change vs veh, SLC12A2 / RFU, IBTK / Fold change vs veh, IBTK / RFU, ESF1 / Fold change vs veh, ESF1 / Fold change vs veh, TMEM50B / RFU, TAOK1 / Fold change vs veh, TAOK1 / RFU, ACBD3 / Fold change vs veh, ACBD3 / RFU, TMA16 / Fold change vs veh, TMA16 / RFU, RWDD3 / Fold change vs veh, RWDD3 / RFU, BCAT1 / Fold change vs veh, BCAT1 / RFU, EDEM3 / Fold change vs veh, EDEM3 / RFU, TMEM33 / Fold change vs veh, TMEM33 / RFU, WDR75 / Fold change vs veh, WDR75 / RFU, AHCTF1 / Fold change vs veh, AHCTF1 / RFU, TFRC / Fold change vs veh, TFRC / RFU, ZDHHC17 / Fold change vs veh, ZDHHC17 / RFU, NOM1 / Fold change vs veh, NOM1 / RFU, ARL8B / Fold change vs veh, ARL8B / RFU, ZBTB11 / Fold change vs veh, ZBTB11 / RFU, TAMM41 / Fold change vs veh, TAMM41 / RFU, KIAA1704 /// LOC100996395 / Fold change vs veh, KIAA1704 /// LOC100996395 / RFU, ING1 / Fold change vs veh, ING1 / RFU, TRMT61B / Fold change vs veh, TRMT61B / RFU, FUBP3 / Fold change vs veh, FUBP3 / RFU, TP53 / Fold change vs veh, TP53 / RFU, TNKS2 / Fold change vs veh, TNKS2 / RFU, ZFP14 / Fold change vs veh, ZFP14 / RFU, ACTR2 / Fold change vs veh, ACTR2 / RFU, PPP3R1 / Fold change vs veh, PPP3R1 / RFU, PIK3R1 / Fold change vs veh, PIK3R1 / RFU, HNRNPA1 / Fold change vs veh, HNRNPA1 / RFU, RNF170 / Fold change vs veh, RNF170 / RFU, ZNF28 / Fold change vs veh, ZNF28 / RFU, RNGTT / Fold change vs veh, RNGTT / RFU, OGT / Fold change vs veh, OGT / RFU, BRD1 / Fold change vs veh, BRD1 / RFU, MARS / Fold change vs veh, MARS / RFU, ZNF655 / Fold change vs veh, ZNF655 / RFU, FAHD1 / Fold change vs veh, FAHD1 / RFU, BDP1 / Fold change vs veh, BDP1 / RFU, LRRCC1 / Fold change vs veh, LRRCC1 / RFU, ARID1A / Fold change vs veh, ARID1A / RFU, ZNF146 / Fold change vs veh, ZNF146 / RFU, ZNF330 / Fold change vs veh, ZNF330 / RFU, GPN3 / Fold change vs veh, GPN3 / RFU, C9orf123 / Fold change vs veh, C9orf123 / RFU, N4BP2L2 / Fold change vs veh, N4BP2L2 / RFU, ARFIP1 / Fold change vs veh, ARFIP1 / RFU, FAM179B / Fold change vs veh, FAM179B / RFU, BCL10 / Fold change vs veh, BCL10 / RFU, UHRF1BP1L / Fold change vs veh, UHRF1BP1L / RFU, BET1 / Fold change vs veh, BET1 / RFU, CNOT2 / Fold change vs veh, CNOT2 / RFU, ZNF268 / Fold change vs veh, ZNF268 / Fold change vs veh, ZNF507 / RFU, DGCR2 / Fold change vs veh, DGCR2 / RFU, WDSUB1 / Fold change vs veh, WDSUB1 / Fold change vs veh, HSP90B1 /// MIR3652 / RFU, ADSS / Fold change vs veh, ADSS / RFU, GK / Fold change vs veh, GK / RFU, ZNF148 / Fold change vs veh, ZNF148 / RFU, TAF9 / Fold change vs veh, TAF9 / RFU, SLC1A5 / Fold change vs veh, SLC1A5 / RFU, SLMO2 / Fold change vs veh, SLMO2 / RFU, ABCC4 / Fold change vs veh, ABCC4 / RFU, LOC101060439 /// RAP1B / Fold change vs veh, LOC101060439 /// RAP1B / RFU, RFX7 / Fold change vs veh, RFX7 / RFU, GTPBP10 / Fold change vs veh, GTPBP10 / RFU, CNEP1R1 / Fold change vs veh, CNEP1R1 / RFU, BIVM-ERCC5 /// ERCC5 / Fold change vs veh, BIVM-ERCC5 /// ERCC5 / RFU, ILF3 / Fold change vs veh, ILF3 / RFU 11762660_at / Fold change /veh 11762660_at / RFU VCAN (11757783_s_at) / Fold change /veh VCAN (11757783_s_at) / RFU DDX43 (11728927_at) / Fold change /veh DDX43 (11728927_at) / RFU KRT8 (11758188_x_at) / Fold change /veh KRT8 (11758188_x_at) / RFU NKD1 (11759106_at) / Fold change /veh NKD1 (11759106_at) / RFU SRD5A1 (11742802_a_at) / Fold change /veh SRD5A1 (11742802_a_at) / RFU TPSAB1 /// TPSB2 (11721975_s_at) / Fold change /veh TPSAB1 /// TPSB2 (11721975_s_at) / RFU GSTM3 (11746129_a_at) / Fold change /veh GSTM3 (11746129_a_at) / RFU IL23R (11737362_x_at) / Fold change /veh IL23R (11737362_x_at) / RFU TMEM51 (11727254_a_at) / Fold change /veh TMEM51 (11727254_a_at) / RFU PIWIL2 (11732686_x_at) / Fold change /veh PIWIL2 (11732686_x_at) / RFU ORM1 (11744905_x_at) / Fold change /veh ORM1 (11744905_x_at) / RFU CCDC152 (11743942_at) / Fold change /veh CCDC152 (11743942_at) / RFU ECM1 (11717891_a_at) / Fold change /veh ECM1 (11717891_a_at) / RFU IL23R (11748794_a_at) / Fold change /veh IL23R (11748794_a_at) / RFU TNFAIP8L3 (11732012_x_at) / Fold change /veh TNFAIP8L3 (11732012_x_at) / RFU MBOAT4 (11741988_at) / Fold change /veh MBOAT4 (11741988_at) / RFU 11764193_at / Fold change /veh 11764193_at / RFU TMEM53 (11763286_at) / Fold change /veh TMEM53 (11763286_at) / RFU MAGEB2 (11727129_at) / Fold change /veh MAGEB2 (11727129_at) / RFU TMEM200A (11744735_a_at) / Fold change /veh TMEM200A (11744735_a_at) / RFU CCDC152 (11751479_a_at) / Fold change /veh CCDC152 (11751479_a_at) / RFU FAM211A (11726209_a_at) / Fold change /veh FAM211A (11726209_a_at) / RFU RGS16 (11746705_a_at) / Fold change /veh RGS16 (11746705_a_at) / RFU VCAN (11755009_s_at) / Fold change /veh VCAN (11755009_s_at) / RFU RHOB (11743442_s_at) / Fold change /veh RHOB (11743442_s_at) / RFU RGS16 (11720943_a_at) / Fold change /veh RGS16 (11720943_a_at) / RFU RGS16 (11720944_at) / Fold change /veh RGS16 (11720944_at) / RFU, VPS4B / Fold change vs veh, VPS4B / RFU, CREB1 / Fold change vs veh, CREB1 / RFU, DNAJC13 / Fold change vs veh, DNAJC13 / RFU, GNAQ / Fold change vs veh, GNAQ / RFU, CDK5R1 / Fold change vs veh, CDK5R1 / RFU, ZRANB3 / Fold change vs veh, ZRANB3 / RFU, CUL4A / Fold change vs veh, CUL4A / RFU, CCNY / Fold change vs veh, CCNY / RFU, UFL1 / Fold change vs veh, UFL1 / RFU, COG3 / Fold change vs veh, COG3 / RFU, DIAPH2 / Fold change vs veh, DIAPH2 / RFU, SKA2 / Fold change vs veh, SKA2 / RFU, AFF3 / Fold change vs veh, AFF3 / RFU, LMF1 / Fold change vs veh, LMF1 / RFU, IPO11 / Fold change vs veh, IPO11 / RFU, DFFB / Fold change vs veh, DFFB / RFU, FOXP1 / Fold change vs veh, FOXP1 / RFU, CARD8 / Fold change vs veh, CARD8 / RFU, STRN3 / Fold change vs veh, STRN3 / RFU, ADK / Fold change vs veh, ADK / RFU, RASSF2 / Fold change vs veh, RASSF2 / RFU, WIPF1 / Fold change vs veh, WIPF1 / RFU, LARP1B / Fold change vs veh, LARP1B / RFU, RASA1 / Fold change vs veh, RASA1 / RFU, RB1 / Fold change vs veh, RB1 / RFU, PPFIA1 / Fold change vs veh, PPFIA1 / RFU, MAT2A / Fold change vs veh, MAT2A / RFU, CCT5 / Fold change vs veh, CCT5 / RFU, WDR92 / Fold change vs veh, WDR92 / RFU, CUX1 / Fold change vs veh, CUX1 / RFU, TTC7A / Fold change vs veh, TTC7A / RFU, TMEM135 / Fold change vs veh, TMEM135 / RFU, DEPTOR / Fold change vs veh, DEPTOR / RFU, CPM / Fold change vs veh, CPM / RFU, DNAJB6 / Fold change vs veh, DNAJB6 / RFU, CACNA2D3 / Fold change vs veh, CACNA2D3 / RFU, DTX4 / Fold change vs veh, DTX4 / RFU, TFCP2 / Fold change vs veh, TFCP2 / RFU, GMCL1 /// GMCL1P1 / Fold change vs veh, GMCL1 /// GMCL1P1 / RFU, AEBP2 / Fold change vs veh, AEBP2 / RFU, SNHG1 /// SNORD22 /// SNORD25 /// SNORD26 /// SNORD27 /// SNORD28 /// SNORD29 /// SNORD31 / Fold change vs veh, SNHG1 /// SNORD22 /// SNORD25 /// SNORD26 /// SNORD27 /// SNORD28 /// SNORD29 /// SNORD31 / Fold change (Aza/veh), C12orf56 (ProbeSet 11735607_a_at) / Fold change (ACY-1035/veh), C12orf56 (ProbeSet 11735607_a_at) / Fold change (Aza/veh), FGFR1OP (ProbeSet 11751329_s_at) / Fold change (ACY-1035/veh), FGFR1OP (ProbeSet 11751329_s_at) / Fold change (Aza/veh), VPS36 (ProbeSet 11739960_a_at) / Fold change (ACY-1035/veh), VPS36 (ProbeSet 11739960_a_at) / RFU SYPL1 (11715823_x_at) / Fold change /veh SYPL1 (11715823_x_at) / RFU IGFBP7 (11715501_s_at) / Fold change /veh IGFBP7 (11715501_s_at) / RFU REEP3 (11722064_at) / Fold change /veh REEP3 (11722064_at) / RFU IGLL1 (11728026_x_at) / Fold change /veh IGLL1 (11728026_x_at): dose or concentration left out as unconfirmed. Format: cell-based, human.

As for `Nc1ccc(-c2cccs2)cc1NC(=O)c1ccc2c(c1)cc(C1CC1)n2CCN1CCOCC1` [ACY-1035], the “RFU PRB3 (11715151_x_at)” value amounted to 8.09 RFU.
